Experimental data published in US20200392158A1, “INHIBITORS OF LEUCINE RICH REPEAT KINASE 2” (GLAXOSMITHKLINE INTELLECTUAL PROPERTY DEVELOPMENT LIMITED, priority 2017, published 2020).

Molecular target: T1, LRRK2 kinase in SH-SY5Y cells over-expressing recombinant full length LRRK2 (Homo sapiens, UniProt Q5S007)
T1 construct: A BacMam virus expressing full length recombinant LRRK2 was purchased from Invitrogen; host or cells: SH-SY5Y human neuroblastoma cells transduced with BacMam LRRK2 virus
Assay: Recombinant cellular LRRK2 AlphaScreen assay (LRRK2 Ser935 phosphorylation)
Assay type: cell-based
Conditions: 60 min
From the text: b. Recombinant Cellular LRRK2 AlphaScreen Assay
To determine the activity of compounds against LRRK2 kinase in cells, the observed LRRK2 kinase-dependent modulation of LRRK2 Ser 935 phosphorylation (Dzamko et al., 2010, Biochem. J. 430: 405-413) was utilized to develop a quantitative 384 well plate-based immunoassay of LRRK2 Ser935 phosphorylation in the human neuroblastoma cell line SH-SY5Y, engineered to over-express recombinant full length LRRK2 protein.
A BacMam virus expressing full length recombinant LRRK2 was purchased from Invitrogen and amplified by inoculation of SF-9 cells at MOI 0.3 for 4-5 days in Sf-900 III SFM medium supplemented with 3% fetal bovine serum. Infected cell cultures were then centrifuged at 2000 g for 20 minutes, viral supernatant titer determined by anti-gp64 plaque assay and stored at 4° C.
Affinity-purified anti-phospho LRRK2 Ser935 sheep polyclonal antibody (Dzamko et al., 2010, Biochem. J. 430: 405-413) was biotinylated by standard methods (PerkinElmer). Anti-LRRK2 rabbit polyclonal antibody was purchased from Novus Biologicals. AlphaScreen Protein A IgG Kit (including acceptor and donor beads) was purchased from Perkin Elmer.
SH-SY5Y cells were grown in DMEM/F12 medium with 10% dialysed fetal bovine serum and harvested by treatment with 0.5% trypsin-EDTA for 5 minutes at 37° C. followed by centrifugation at 1000 rpm for 4 minutes. The cell pellet was resuspended in Opti-MEM reduced serum media (Invitrogen) at 200,000 cells/ml and mixed with the BacMam LRRK2 virus at M01=50. 50 μl cell solutions were then dispensed to each well of a 384-well plate and incubated at 37° C., 5% CO2 for 24 hours.
Compounds were prepared at 10× final assay concentration as 11 point 1 in 4 serial I dilutions in Opti-MEM reduced serum medium (Invitrogen 31985070) containing 1% DMSO. On the day of assay, 5.5 μl of the compound solutions were transferred from the compound plate to the cell assay plate to achieve a top final assay concentration of 10 uM. DMSO (0.1% final assay concentration) was added to column 6 and 2-(benzyloxy)-5-methyl-4-(1-methyl-1H-pyrazol-4-yl)-N-(pyridin-3-yl)benzamide (2 μM final assay concentration) was added to column 18 to serve as 0% and 100% inhibition controls, respectively.
Cells were incubated at 37° C., 5% CO2 for 60 minutes. The medium was then removed and cells lysed by addition of 20 μl of cell lysis buffer (Cell Signaling Technology) and incubation at 4° C. for 20 minutes. 10 μl of antibody/acceptor bead mix [(1/1000 biotinylated-pS935 LRRK2 antibody, 1/1000 total-LRRK2 antibody, 1/100 Acceptor beads in AlphaScreen detection buffer (25 mM Hepes (pH 7.4), 0.5% Triton X-100, 1 mg/ml Dextran 500 and 0.1% BSA)] was then added to each well and plates incubated for 2 hours at ambient temperature in the dark. 10 μl of donor beads solution (1/33.3 donor beads in AlphaScreen detection buffer) was then added to each well. Following incubation for a further 2 hours at ambient temperature in the dark, plates were read on an EnVision™ plate reader at emission 520-620 nm with excitation 680 nm. Dose response curve data was based on a sigmoidal dose-response model.

T1 sequence (Q5S007 whole entry): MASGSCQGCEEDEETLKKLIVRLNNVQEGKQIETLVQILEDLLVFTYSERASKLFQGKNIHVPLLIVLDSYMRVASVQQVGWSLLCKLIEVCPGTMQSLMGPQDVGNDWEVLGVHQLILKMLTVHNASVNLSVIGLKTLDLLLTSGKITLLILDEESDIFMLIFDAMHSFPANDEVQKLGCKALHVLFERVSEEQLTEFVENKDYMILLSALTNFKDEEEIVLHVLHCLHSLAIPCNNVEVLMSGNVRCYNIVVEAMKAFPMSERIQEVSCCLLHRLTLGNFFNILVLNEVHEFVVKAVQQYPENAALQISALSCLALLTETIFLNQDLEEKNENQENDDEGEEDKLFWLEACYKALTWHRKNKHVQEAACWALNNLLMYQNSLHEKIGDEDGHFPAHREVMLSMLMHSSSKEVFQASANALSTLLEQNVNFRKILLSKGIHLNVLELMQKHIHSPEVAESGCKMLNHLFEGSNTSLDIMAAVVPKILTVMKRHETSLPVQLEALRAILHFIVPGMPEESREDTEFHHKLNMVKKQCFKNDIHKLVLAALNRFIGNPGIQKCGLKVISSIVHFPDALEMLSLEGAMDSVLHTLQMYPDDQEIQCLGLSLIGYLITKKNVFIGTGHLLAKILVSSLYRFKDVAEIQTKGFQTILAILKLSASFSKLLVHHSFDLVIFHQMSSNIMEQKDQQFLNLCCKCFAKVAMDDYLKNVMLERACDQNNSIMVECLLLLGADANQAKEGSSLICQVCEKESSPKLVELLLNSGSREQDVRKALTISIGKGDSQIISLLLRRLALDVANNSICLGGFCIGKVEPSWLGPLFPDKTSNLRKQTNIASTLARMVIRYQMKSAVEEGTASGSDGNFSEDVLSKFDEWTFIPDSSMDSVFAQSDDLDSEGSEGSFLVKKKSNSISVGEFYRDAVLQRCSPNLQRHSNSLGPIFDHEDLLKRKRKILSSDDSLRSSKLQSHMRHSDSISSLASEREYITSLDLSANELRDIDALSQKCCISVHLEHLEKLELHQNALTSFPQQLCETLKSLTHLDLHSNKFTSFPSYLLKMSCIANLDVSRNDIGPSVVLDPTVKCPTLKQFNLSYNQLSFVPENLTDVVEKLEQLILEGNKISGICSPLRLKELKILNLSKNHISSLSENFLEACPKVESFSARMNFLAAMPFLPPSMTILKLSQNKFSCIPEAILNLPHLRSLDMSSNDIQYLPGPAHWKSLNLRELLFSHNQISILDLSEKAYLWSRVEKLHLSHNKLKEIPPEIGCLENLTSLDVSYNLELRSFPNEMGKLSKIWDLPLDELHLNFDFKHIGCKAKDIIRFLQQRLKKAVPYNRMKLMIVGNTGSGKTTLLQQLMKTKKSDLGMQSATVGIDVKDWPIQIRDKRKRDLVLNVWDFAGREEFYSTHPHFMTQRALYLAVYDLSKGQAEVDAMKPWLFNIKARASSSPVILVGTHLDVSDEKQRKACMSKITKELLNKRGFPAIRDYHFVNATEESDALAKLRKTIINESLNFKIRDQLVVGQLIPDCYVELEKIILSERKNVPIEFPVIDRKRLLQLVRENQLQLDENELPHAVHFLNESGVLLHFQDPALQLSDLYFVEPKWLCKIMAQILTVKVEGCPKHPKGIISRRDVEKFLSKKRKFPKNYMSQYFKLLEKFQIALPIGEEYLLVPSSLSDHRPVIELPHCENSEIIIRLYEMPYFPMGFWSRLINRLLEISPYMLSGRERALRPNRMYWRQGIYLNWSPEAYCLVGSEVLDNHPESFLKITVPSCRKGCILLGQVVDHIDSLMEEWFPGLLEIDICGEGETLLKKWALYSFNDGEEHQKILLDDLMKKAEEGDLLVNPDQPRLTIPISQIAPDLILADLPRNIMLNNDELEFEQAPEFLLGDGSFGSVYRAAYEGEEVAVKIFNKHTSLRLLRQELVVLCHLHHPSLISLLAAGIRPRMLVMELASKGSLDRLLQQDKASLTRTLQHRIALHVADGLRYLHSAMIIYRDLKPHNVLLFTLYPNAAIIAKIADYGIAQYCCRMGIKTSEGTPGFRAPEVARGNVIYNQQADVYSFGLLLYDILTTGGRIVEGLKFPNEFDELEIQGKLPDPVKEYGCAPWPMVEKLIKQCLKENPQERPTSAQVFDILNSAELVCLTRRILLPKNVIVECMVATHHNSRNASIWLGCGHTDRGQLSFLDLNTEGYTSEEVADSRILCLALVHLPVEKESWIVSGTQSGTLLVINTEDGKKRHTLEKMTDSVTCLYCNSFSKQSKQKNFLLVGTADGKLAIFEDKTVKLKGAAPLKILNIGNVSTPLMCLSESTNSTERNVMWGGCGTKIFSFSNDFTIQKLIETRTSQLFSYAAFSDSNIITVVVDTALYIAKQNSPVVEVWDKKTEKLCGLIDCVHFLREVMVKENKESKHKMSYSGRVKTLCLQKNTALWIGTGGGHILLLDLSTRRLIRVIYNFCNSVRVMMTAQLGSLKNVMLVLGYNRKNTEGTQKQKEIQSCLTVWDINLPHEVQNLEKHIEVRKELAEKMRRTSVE

SMILES: Cc1c2c(nn1C1CCOC(C)C1)OCCC(C)Nc1nc(ncc1Cl)N2 (single isomer, unassigned) [E80, 14-chloro-4,11-dimethyl-5-(2-methyloxan-4-yl)-8-oxa-2,5,6,12, 16,17-hexaazatricyclo[11.3.1.0^3,7]heptadeca-1(16),3,6,13(17),14-pentaene]
- IC50: ≤ 100 nM

SMILES: Cc1c2c(nn1C1COCCC1F)OCCCNc1nc(ncc1Cl)N2 (single isomer, unassigned) [E86, 14-chloro-5-[4-fluorooxan-3-yl]-4-methyl-8-oxa-2,5,6,12,16,17-hexaazatricyclo [11.3.1.0^3,7]heptadeca-1(16),3,6,13(17),14-pentaene]
- IC50: ≤ 100 nM

SMILES: Cc1c2c(nn1C1CCC(O)CC1)OCCC(C)Nc1nc(ncc1Cl)N2 (single isomer, unassigned) [E94, 4-{14-chloro-4,11-dimethyl-8-oxa-2,5,6,12,16,17-hexaazatricyclo [11.3.1.0^3,7]heptadeca-1(16),3,6,13(17),14-pentaen-5-yl}cyclohexan-1-ol]
- IC50: ≤ 100 nM

SMILES: Cc1c2c(nn1C1CCN(C3COC3)CC1F)OCCC(C)Nc1nc(ncc1Cl)N2 (single isomer, unassigned) [E96, 14-chloro-5-[3-fluoro-1-(oxetan-3-yl)piperidin-4-yl]-4,11-dimethyl-8-oxa-2,5,6,12,16,17-hexaazatricyclo[11.3.1.0^3,7]heptadeca-1(16),3,6,13(17),14-pentaene]
- IC50: ≤ 100 nM

SMILES: COCCN1CCC(n2nc3c(c2C)Nc2ncc(Cl)c(n2)N[C@H](C)CCO3)C(F)C1 (single isomer, unassigned) [E100]
- IC50: ≤ 100 nM

SMILES: Cc1c2c(nn1C1CCCOC1)OCCCNc1nc(ncc1C(F)(F)F)N2 (single isomer, unassigned) [E132, 4-methyl-5-(oxan-3-yl)-14-(trifluoromethyl)-8-oxa-2,5,6,12,16,17-hexaazatricyclo[11.3.1.0^3,7]heptadeca-1(16),3,6,13(17),14-pentaene]
- IC50: ≤ 100 nM

SMILES: Cc1c2c(nn1C1CCC(N3CCOCC3)CC1)OCCC(C)Nc1nc(ncc1Cl)N2 (single isomer, unassigned) [E150]
- IC50: ≤ 100 nM

SMILES: Cc1c2c(nn1C1CCC(N3CCC(F)C3)CC1)OCCCNc1nc(ncc1Cl)N2 (single isomer, unassigned) [E152, 14-Chloro-5-[4-(3-fluoropyrrolidin-1-yl)cyclohexyl]-4-methyl-8-oxa-2,5,6,12,16,17-hexaazatricyclo[11.3.1. 0^3,7]heptadeca-1(16),3,6,13(17),14-pentaene]
- IC50: ≤ 100 nM

SMILES: Cc1c2c(nn1C1CCC(N3CCC(F)C3)CC1)OCCC(C)Nc1nc(ncc1Cl)N2 (single isomer, unassigned) [E158, 14-Chloro-5-[4-(3-fluoropyrrolidin-1-yl)cyclohexyl]-4,11-dimethyl-8-oxa-2,5,6,12,16,17-hexaazatricyclo [11.3.1.0^3,7]heptadeca-1(16),3,6,13(17),14-pentaene]
- IC50: ≤ 100 nM

SMILES: Cc1c2c(nn1C(C)(C)C#N)OCC(C)C(C)Nc1nc(ncc1Cl)N2 (single isomer, unassigned) [E165, 2-{14-Chloro-4,10,11-trimethyl-8-oxa-2,5,6, 12,16,17-hexaazatricyclo[11.3.1.0^3,7]heptadeca-1(16),3,6, 13(17),14-pentaen-5-yl}-2-methylpropanenitrile]
- IC50: ≤ 100 nM

SMILES: COCC1CCOc2nn(C3CCOCC3)c(C)c2Nc2ncc(Br)c(n2)N1 (single isomer, unassigned) [E168, 14-Bromo-11-(methoxymethyl)-4-methyl-5-(oxan-4-yl)-8-oxa-2,5,6,12,16,17-hexaazatricyclo[11.3.1.0^3,7] heptadeca-1(16),3,6,13(17),14-pentaene]
- IC50: ≤ 100 nM

SMILES: COC1CCCC(n2nc3c(c2C)Nc2ncc(Cl)c(n2)NC(C)CCO3)C1 (single isomer, unassigned) [E170, 14-Chloro-5-(3-methoxycyclohexyl)-4,11-dimethyl-8-oxa-2,5,6,12,16,17-hexaazatricyclo[11.3.1.0^3,7] heptadeca-1(16),3,6,13(17),14-pentaene]
- IC50: ≤ 100 nM

SMILES: COC1CCCC(n2nc3c(c2C)Nc2ncc(Cl)c(n2)NCCCO3)C1 (single isomer, unassigned) [E178, 14-Chloro-5-(3-methoxycyclohexyl)-4-methyl-8-oxa-2,5,6,12,16,17-hexaazatricyclo[11.3.1.0^3,7]heptadeca-1(16),3,6,13(17),14-pentaene]
- IC50: ≤ 100 nM

SMILES: Cc1c2c(nn1C1CC(C)OC(C)C1)OCCC(C)Nc1nc(ncc1Cl)N2 (single isomer, unassigned) [E194, 14-Chloro-5-(2,6-dimethyloxan-4-yl)-4,11-dimethyl-8-oxa-2,5,6,12,16,17-hexaazatricyclo[11.3.1.0^3,7] heptadeca-1(16),3,6,13(17),14-pentaene]
- IC50: ≤ 100 nM

SMILES: Cc1c2c(nn1C1CC(C)OC(C)C1)OCCCNc1nc(ncc1Cl)N2 (single isomer, unassigned) [E200, 14-Chloro-5-(2,6-dimethyloxan-4-yl)-4-methyl-8-oxa-2,5,6,12,16,17-hexaazatricyclo[11.3.1.0^3,7]heptadeca-1(16),3,6,13(17),14-pentaene]
- IC50: ≤ 100 nM

SMILES: Cc1c2c(nn1C1CCOC(C)C1)OCCCNc1nc(ncc1Cl)N2 (single isomer, unassigned) [E202, 14-Chloro-4-methyl-5-(2-methyloxan-4-yl)-8-oxa-2,5,6,12,16,17-hexaazatricyclo[11.3.1.0^3,7]heptadeca-1(16),3,6,13(17),14-pentaene]
- IC50: ≤ 100 nM

SMILES: COC1CNc2nc(ncc2Cl)Nc2c(nn(C3CCOC(C)C3)c2C)OC1 (single isomer, unassigned) [E206, 14-Chloro-10-methoxy-4-methyl-5-(2-methyloxan-4-yl)-8-oxa-2,5,6,12,16,17-hexaazatricyclo [11.3.1.0^3,7] heptadeca-1(16),3,6,13(17),14-pentaene]
- IC50: ≤ 100 nM

SMILES: COC1CNc2nc(ncc2Cl)Nc2c(nn(CCN3CCOCC3)c2C)OC1 (single isomer, unassigned) [E223, 14-Chloro-10-methoxy-4-methyl-5-[2-(morpholin-4-yl)ethyl]-8-oxa-2,5,6,12,16,17-hexaazatricyclo [11.3.1.0^3,7]heptadeca-1(16),3,6,13(17),14-pentaene]
- IC50: ≤ 100 nM

SMILES: COC1CNc2nc(ncc2C(F)(F)F)Nc2c(nn(C3CCCOC3)c2C)OC1 (single isomer, unassigned) [E227, 10-Methoxy-4-methyl-5-(oxan-3-yl)-14-(trifluoromethyl)-8-oxa-2,5,6,12,16,17-hexaazatricyclo [11.3.1.0^3,7] heptadeca-1(17),3,6,13,15-pentaene]
- IC50: ≤ 100 nM

SMILES: COC1CNc2nc(ncc2Cl)Nc2c(nn(C3CCCOC3)c2C)OC1 (single isomer, unassigned) [E229, 14-Chloro-10-methoxy-4-methyl-5-(oxan-3-yl)-8-oxa-2,5,6,12,16,17-hexaazatricyclo[11.3.1.0^3,7]heptadeca-1(17),3,6,13,15-pentaene]
- IC50: ≤ 100 nM

SMILES: Cc1c2c(nn1C1CCOCC1F)OCCCNc1nc(ncc1Cl)N2 (single isomer, unassigned) [E233, 14-Chloro-5-(3-fluorooxan-4-yl)-4-methyl-8-oxa-2,5,6,12,16,17-hexaazatricyclo[11.3.1.0^3,7]heptadeca-1(16),3,6,13 (17),14-pentaene]
- IC50: ≤ 100 nM

SMILES: COC1CCC(n2nc3c(c2C)Nc2ncc(Cl)c(n2)NCCCO3)CC1 (single isomer, unassigned) [E237, 14-Chloro-5-(4-methoxycyclohexyl)-4-methyl-8-oxa-2,5,6,12,16,17-hexaazatricyclo[11.3.1.0^3,7]heptadeca-1(16), 3,6,13(17),14-pentaene]
- IC50: ≤ 100 nM

SMILES: COC1CCC(n2nc3c(c2C)Nc2ncc(Cl)c(n2)NCC(OC)CO3)CC1 (single isomer, unassigned) [E239, 14-Chloro-10-methoxy-5-(4-methoxycyclohexyl)-4-methyl-8-oxa-2,5,6,12,16,17-hexaazatricyclo [11.3.1. 0^3,7]heptadeca-1(16),3,6,13(17),14-pentaene]
- IC50: ≤ 100 nM
